ChEMBL document CHEMBL3430912, “GSK Tres Cantos Anti-Kinetoplastid Screening (TCAKS) Data”

Assays:
Trypanosoma cruzi [1] = assay: (§1) GSK_TCAKS: pIC50 Trypanosoma cruzi Imaging: Infected Cells. […] Cells were then washed once with PBS before infection. T. cruzi trypomastigotes, collected at days 5 to 8 after infection from LLC-MK2 parasite infected cultures, were allowed to swim out for 4h at 37C from a centrifuged pellet (2,500 rpm/10 min/room temperature). Trypomastigotes were then collected and counted in a CASY Cell Counter. Trypomastigotes, in supplemented DMEM, were added to H9c2 cultures in a multiplicity of infection of 1 and incubated for 18 h. Cells were washed once with PBS before incubation of the infected H9c2 monolayer with trypsin (Life-Technologies) to detach cells from the flask. Cells were counted in a CASY Cell Counter using a 150 um capillary and their density set at 5 * 10^4 cells per mL in supplemented assay DMEM. Infected H9c2 were dispensed into 384-well poly-lysine coated assay plates at 50uL per well using a Multidrop Combi dispenser. After seeding them, the plates were incubated at 37C, 5% CO2 for 72h. Cultures were then fixed and stained by addition of 50 uL of a solution containing 8% formaldehyde and 4 uM DRAQ5 DNA dye (BioStatus, UK) per well. […] Five images were collected per well for reliable statistical analysis. Automated image analysis was performed with a script developed on Acapella High Content Imaging and Analysis Software (PerkinElmer). Output: percentage of infected cells per well as a second infection marker.; type: functional, organism-based, Rattus norvegicus; settings: H9c2, 4 h
[2] = test system: Trypanosoma brucei brucei; assay: GSK_TCAKS: pIC50 Trypanosoma brucei viability assay using luminiscence. Assay plates (1536-well) were prepared. T. brucei cultures were harvested and counted in a CASY cell counter. A parasite suspension was prepared at a final concentration of 5 * 10^4 cells/mL in complete HMI9 medium and 6uL was dispensed to all wells containing compounds using a Multidrop Combi dispenser. 6uL of HMI9 media with 0.4% DMSO were dispensed to control columns. Plates were incubated for 24 h at 37C, 5% CO2 then tempered for 10 min at room temperature. ATP content was quantified by adding 4 uL of CellTiter-Glo Reagent (Promega) according to the manufacturer's instructions. Luminescence was measured using a ViewLux.; type: functional, organism-based; settings: Lister 427, CASY
Leishmania donovani [3] = assay: GSK_TCAKS: pIC50 Leishmania donovani viability assay using fluorescence intensity. Assay plates (1536-well) were prepared by adding 30nL per well of compound. For single shot assay, the final compound concentration was 5uM. […] Briefly, eGFP LdBOB axenic amastigotes were harvested, fixed and counted in a CASY cell counter (Roche-Applied Science). A final concentration of 1.5 * 10^5 cells per well were prepared in amastigote media containing 500 U/mL penicillin/streptomycin (Invitrogen) and 6uL was dispensed to each experimental well using a Multidrop Combi dispenser (Thermo Scientific). 6uL of assay media was dispensed to control columns used as reference for 100% compound response. Following incubation for 72 h at 37C, 5% CO2, 2 uL of resazurin was added to each well at a final concentration of 0.5 mM in phosphate buffered saline (PBS) with IGEPAL (Sigma-Aldrich), 0.05% (v/v).; type: functional, organism-based
Leishmania donovani [4] = assay: GSK_TCAKS: pIC50 Leishmania donovani Imaging: Amastigotes/Macrophages. Assay plates (384-well) were prepared by adding 250nL of compound to each well. For single shot assay, the final compound concentration was 5 uM. […] Automated image analysis was performed with a script developed on Acapella High Content Imaging and Analysis Software (PerkinElmer). Output: Average number of amastigotes per macrophage cell were reported for each well.; type: functional, organism-based, Homo sapiens; settings: THP-1
Leishmania donovani [5] = assay: GSK_TCAKS: pIC50 Leishmania donovani Imaging: Infected Macrophages. Assay plates (384-well) were prepared by adding 250nL of compound to each well. For single shot assay, the final compound concentration was 5 uM. […] Automated image analysis was performed with a script developed on Acapella High Content Imaging and Analysis Software (PerkinElmer). Output: Percent of infected macrophage cells were reported for each well.; type: functional, organism-based, Homo sapiens; settings: THP-1
Leishmania donovani [6] = assay: GSK_TCAKS: pIC50 Leishmania donovani Imaging: THP-1 Host Macrophages. Assay plates (384-well) were prepared by adding 250nL of compound to each well. For single shot assay, the final compound concentration was 5 uM. […] Automated image analysis was performed with a script developed on Acapella High Content Imaging and Analysis Software (PerkinElmer). Output: THP-1 cell count were reported for each well.; type: functional, organism-based, Homo sapiens
[7] = GSK_TCAKS: pIC50 HepG2 human cell line viability assay using luminiscence. […] Seeding density was checked to ensure that new mono-layers were not more than 50% confluent at the time of harvesting. Cell suspension was added to 500 mL of the same medium at a final density of 1.2 * 10^5 cells/mL. This cell suspension was dispensed (25 uL, 3000 cells per well) into 384-well clear-bottom plates using a Multidrop Combi dispenser. Prior to addition of the cell suspension, the screening compounds (250 nL) were pre-dispensed into the plates with an Echo liquid handler. Plates were incubated for 48 h at 37C, 5% CO2. After incubation, plates equilibrated at room temperature for 30 min before proceeding to develop the luminescent signal. The signal developer, CellTiter-Glo Reagent, was allowed to equilibrate at room temperature for 30 min and added to the plates (25uL per well) using a Multidrop Combi dispenser. Plates were left for 10 min at room temperature for stabilization and then read using a ViewLux.; type: toxicity, cell-based
[8] = biological target: Sterol 14-alpha demethylase (Trypanosoma cruzi (strain CL Brener), UniProt Q7Z1V1); assay: GSK_TCAKS: pIC50 CYP51 from Trypanosoma cruzi.; type: functional
Chain of Sterol 14-alpha demethylase (Q7Z1V1 whole entry): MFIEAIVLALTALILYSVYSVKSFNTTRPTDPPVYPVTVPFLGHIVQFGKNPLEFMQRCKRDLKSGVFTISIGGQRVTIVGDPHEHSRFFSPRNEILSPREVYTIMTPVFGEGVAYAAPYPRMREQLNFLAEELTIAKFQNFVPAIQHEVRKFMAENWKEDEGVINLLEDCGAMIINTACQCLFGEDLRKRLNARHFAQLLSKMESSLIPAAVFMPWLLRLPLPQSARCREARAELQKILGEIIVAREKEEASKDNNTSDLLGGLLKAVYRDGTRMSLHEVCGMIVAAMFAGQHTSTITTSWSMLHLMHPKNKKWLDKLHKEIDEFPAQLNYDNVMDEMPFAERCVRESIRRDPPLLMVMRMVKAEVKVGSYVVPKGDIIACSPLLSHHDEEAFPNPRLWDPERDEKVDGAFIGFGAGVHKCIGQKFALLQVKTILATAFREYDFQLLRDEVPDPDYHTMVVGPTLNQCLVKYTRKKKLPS

Trypanosoma cruzi [9] = assay: GSK_TCAKS: pIC50 Trypanosoma cruzi Imaging: Amastigotes/Cell. […] Cells were then washed once with PBS before infection. T. cruzi trypomastigotes, collected at days 5 to 8 after infection from LLC-MK2 parasite infected cultures, were allowed to swim out for 4h at 37C from a centrifuged pellet (2,500 rpm/10 min/room temperature). Trypomastigotes were then collected and counted in a CASY Cell Counter. Trypomastigotes, in supplemented DMEM, were added to H9c2 cultures in a multiplicity of infection of 1 and incubated for 18 h. Cells were washed once with PBS before incubation of the infected H9c2 monolayer with trypsin (Life-Technologies) to detach cells from the flask. Cells were counted in a CASY Cell Counter using a 150 um capillary and their density set at 5 * 10^4 cells per mL in supplemented assay DMEM. Infected H9c2 were dispensed into 384-well poly-lysine coated assay plates at 50uL per well using a Multidrop Combi dispenser. After seeding them, the plates were incubated at 37C, 5% CO2 for 72h. Cultures were then fixed and stained by addition of 50 uL of a solution containing 8% formaldehyde and 4 uM DRAQ5 DNA dye (BioStatus, UK) per well. […] Five images were collected per well for reliable statistical analysis. Automated image analysis was performed with a script developed on Acapella High Content Imaging and Analysis Software (PerkinElmer). Output: number of amastigotes per cell as infection level measurement.; type: functional, organism-based, Rattus norvegicus; settings: H9c2, 4 h
Trypanosoma cruzi [10] = assay: GSK_TCAKS: pIC50 Trypanosoma cruzi viability assay using beta-GAL activity. This assay was run at single shot at 5uM compound concentration per well. The biological reagents consisted of NIH-3T3 host cells and trypomastigotes parasitic cells; both cell types were set to a 3.3 * 10^5 cells/mL dilution in assay DMEM by means of a CASY cell counter device using a 60um capillary. 6 uL of the mixture were dispensed per well (about 1 * 10^3 host-cells and 1 * 10^3 parasites) with a Multidrop Combi dispenser. […] In all wells, the percentage of DMSO never exceeded 0.5%. Plates incubated for four days at 37C, 5% CO2. The substrate used for the assay fluorescence intensity (FLINT) readout was resorufin-beta-D-galactopiranoside (Sigma-Aldrich) at 5uM per well. It was diluted in PBS supplemented with the soft detergent Igepal (Fluka).; type: functional, organism-based, Mus musculus; settings: Tulahuen, NIH3T3
[11] = test system: Trypanosoma brucei brucei; assay: GSK_TCAKS: pIC50 Trypanosoma brucei viability assay using fluorescence intensity. Assay plates (1536-well) were prepared by dispensing 25nL of compound solution per well using an Echo acoustic dispenser (Labcyte).; type: functional, organism-based; settings: Lister 427, 2 h
NIH3T3 = assay: GSK_TCAKS: pIC50 NIH 3T3 cell line viability assay using luminiscence. Tissue culture surface treated assay plates (1536-well) were used. […] The 100% cells survival control was determined exposing the host-cells to a 0.5% DMSO concentration, whereas the 100% toxicity control was achieved by seeding the cells in presence of Amphotericin B at 50uM. Plates were incubated for four days at 37C, 5% CO2. The assay readout was developed by addition of 5uL of CellTiter-Glo Reagent following the manufacturer's instructions. Luminiscence was measured using a ViewLux.; type: functional, cell-based; settings: Mus musculus, NIH3T3, 96 h
Trypanosoma cruzi [12] = assay: as §1, with “H2C9” for “Trypanosoma cruzi”, “H9c2 Host Cardiomyocytes.” for “Infected Cells.”, “Number” for “percentage”, “H9c2 Host Cardiomyocytes nuclei to determine drug-related cytotoxicity.” for “infected cells per well as a second infection marker.”; type: functional, organism-based, Rattus norvegicus; settings: H9c2, 4 h

SMILES	IC50 (Trypanosoma cruzi [1]) [µM]	IC50 [2] [µM]	IC50 (Leishmania donovani [3]) [µM]	IC50 (Leishmania donovani [4]) [µM]	IC50 (Leishmania donovani [5]) [µM]	IC50 (Leishmania donovani [6]) [µM]	IC50 at 48 h [7] [µM]	IC50 [8] [µM]	IC50 (Trypanosoma cruzi [9]) [µM]	IC50 (Trypanosoma cruzi [10]) [µM]	IC50 [11] [µM]	IC50 (NIH3T3) [µM]	IC50 (Trypanosoma cruzi [12]) [µM]
Clc1cc(Br)ccc1OCCCCn1ccnc1	0.251	20	0.126	6.31	25.1	31.6	50.1	0.0631	0.316	0.631	10	15.8	25.1
CC(=O)Nc1nc(-c2cc(C)ccc2C)c(C)s1	0.2	> 39.8	> 50.1	31.6	> 50.1	> 50.1	> 100	> 100	0.158	0.2	> 39.8	25.1	> 50.1
CN(C)Cc1ccc(N2CCC(NS(=O)(=O)c3ccc(Cl)cc3)CC2)cc1	0.316	31.6	39.8	25.1	> 50.1	25.1	50.1	> 100	0.251	0.794	25.1	15.8	12.6
CCCn1c(NC(=O)Cc2ccc(Cl)cc2)nc2ccccc21	2	3.16	39.8	3.16	5.01	> 50.1	> 100	> 100	1.26	0.631	2	> 50.1	> 50.1
N#Cc1ccc(S(=O)(=O)N2CCC3(CCN(c4ccccc4)C3=O)CC2)cc1	1	> 39.8	> 50.1	> 50.1	> 50.1	> 50.1	> 100	> 100	0.631	1.26	> 39.8	> 50.1	> 50.1
Cc1cc2ncn(-c3ccc([N+](=O)[O-])cc3C#N)c2cc1C	2	> 39.8	> 50.1	> 50.1	> 50.1	> 50.1	> 100	> 100	0.794	1.26	20	> 50.1	> 50.1
O=C(NCCNc1noc(-c2ccc([N+](=O)[O-])cc2)n1)c1ccc(Cl)cc1	> 50.1	> 39.8	> 50.1	> 50.1	> 50.1	15.8	> 100	> 100	1.26	2	3.16	> 50.1	> 50.1
Cc1n[nH]c2c1C(c1ccc(OCc3ccccc3F)cc1)SCC(=O)N2 (stereo not given)	3.16	> 39.8	39.8	> 50.1	> 50.1	> 50.1	> 100	> 100	0.794	2	25.1	> 50.1	> 50.1
COc1ccc2ncc(=O)n(CCN3CCOC(CNCc4ccc(C(F)(F)F)cc4F)C3)c2n1 (stereo not given)	1.58	2.51	39.8	> 50.1	> 50.1	> 50.1	> 100	10	0.631	0.398	0.631	3.98	> 50.1
c1cc(-c2ncc(-c3ccn[nH]3)s2)ccn1	0.251	> 39.8	> 50.1	10	> 50.1	> 50.1	> 100	0.0398	0.251	0.178	20	> 50.1	> 50.1
